The target in one assay is CDK4/Cyclin D1 (Homo sapiens (Human), UniProt P11802). Briefly: CDK4/CyclinD1 enzymatic activity assay (TR-FRET). The format is biochemical. The note with it: ATP 2 mM, read-out: CDK4_D1 IC50. The method, then:
CDK4/CyclinD1 Enzymatic Activity Assay
The inhibitory activity of compounds was evaluated in vitro using TR-FRET assay with white 384-well low volume microplate (Greiner Bio-One). CDK4/Cyclin D1 catalyzed phosphorylation of peptide in the presence and absence of compounds was measured. IC50 determination. Recombinant protein complex CDK4/Cyclin D1, expressed from insect cell, was purchased from ProQinase. Testing compounds were dissolved in DMSO at 0.1 mM and tested in 9-dose IC50 mode. The reaction mixture was prepared by mixing CDK4/CyclinD1 (1 nM final), ULight-4E-BP1 (100 nM final, Perkinelmer, TRF0128-D), and ATP (2 mM final) in assay buffer (20 mM of HEPES pH 7.4, 1 mM of EGTA, 0.05% BSA, 0.005% Tween 20, and 1 mM TCEP). The compound of interest in DMSO was added to each well in 3-fold serial dilution by dispenser (TECAN D300E). After 20 minutes preincubation at room temperature, MgCl2 (10 mM final) was added to initiate the reaction. Following a 60 minutes incubation at 37° C., the reaction was stopped by addition of 2 μL of quenching buffer consisting of Lance detection buffer (Perkinelmer CR97-100C), 2 nM LANCE Ultra Europium-anti-P-4E-BP1 (Perkinelmer, TRF0216-D), 10 mM EDTA, and incubate at room temperature for additional 60 minutes in dark. The reaction signal was measured by Envision multimode plate reader (PerkinElmer, 2102-0010). IC50 values were determined by fitting the data to the standard 4 parameters with Hill Slope using GraphPad Prism software.

In assay [1] the test system is MCF7 adenocarcinoma cell line. Briefly: Cell proliferation studies in MCF7 cells (ATP-Lite, 10 days). In kind it is cell-based. The note with it: Homo sapiens, 240 h, read-out: PROLIFERATION_CTG_MCF7 IC50. The protocol:
Cell Proliferation Studies in MCF7 Cells
Cell proliferation studies were conducted in MCF7 adenocarcinoma cell line. Cells were maintained in DMEM (Coming, Catalog #: 10-013-CV) supplemented with 10% v/v FBS (Gibco, Catalog #: 26140-079), 1% v/v Penicillin Streptomycin (Gibco, Catalog #15140-122) Cells were seeded in 384-well plates at a density of 100 or 200 cells/well. Compounds dissolved in DMSO were plated in quadruplicate using a digital dispenser (D300E, Tecan) and tested on a 9-point 3-fold serial dilution. Cells were incubated for 10 days in a 37° C. active humidified incubator at 5% CO2. A media exchange and second compound addition were performed on day 5. Cell viability was measured using the ATP-Lite 1-Step Luminescence reagent (Perkin Elmer, Catalog #: 6016731) as per manufacturer's instructions. Luminescence signal was measured with a multimode plate reader (Envision 2105, Perkin Elmer). Raw data files were imported to Dotmatics Screening Ultra for IC50 analysis. Luminescence values were normalized to both background and DMSO controls to obtain a percentage of viable cells relative to DMSO vehicle control.

We go through 22 compounds from US11685744B2, “CDK inhibitors and their use as pharmaceuticals” (Prelude Therapeutics, Incorporated, priority 2020, dated 2023).

The structures appear in SMILES notation. pIC50: −log10 of the molar value.

Chain of CDK4/Cyclin D1 (P11802 whole entry): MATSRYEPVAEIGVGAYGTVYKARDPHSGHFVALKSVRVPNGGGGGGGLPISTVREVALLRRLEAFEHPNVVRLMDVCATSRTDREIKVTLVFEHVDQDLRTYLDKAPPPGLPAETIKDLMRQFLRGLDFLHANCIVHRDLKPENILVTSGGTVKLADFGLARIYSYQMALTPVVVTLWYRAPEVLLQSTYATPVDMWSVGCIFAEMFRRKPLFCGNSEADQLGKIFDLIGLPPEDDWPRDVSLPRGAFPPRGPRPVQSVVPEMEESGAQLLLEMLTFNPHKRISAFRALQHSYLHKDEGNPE
Chain of CDK4/Cyclin D1 (P24385 whole entry partner): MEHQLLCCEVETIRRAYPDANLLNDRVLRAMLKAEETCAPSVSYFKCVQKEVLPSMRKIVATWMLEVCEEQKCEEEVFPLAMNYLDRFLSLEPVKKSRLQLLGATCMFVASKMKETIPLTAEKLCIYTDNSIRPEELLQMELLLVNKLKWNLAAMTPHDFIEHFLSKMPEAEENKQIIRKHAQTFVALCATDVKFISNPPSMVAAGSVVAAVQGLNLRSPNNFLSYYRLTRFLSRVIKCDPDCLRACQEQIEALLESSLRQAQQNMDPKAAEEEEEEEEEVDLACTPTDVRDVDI

With `Cc1c(-c2nc(Nc3ccc(C4CC[C@H]5CN(C)C(=O)CN45)cn3)ncc2F)sc2c1nc(C)n2C(C)C` (single isomer, unassigned) [Example 118], the pIC50 is ≥ 7.70 at CDK4/Cyclin D1 and 5.70 to 6.70 in assay [1].

In the case of `CCN1CCC(c2ccc(Nc3ncc(F)c(-c4sc5c(nc(C)n5C5CCCC5)c4C)n3)nc2)CC1` [Example 5, 4-(3-Cyclopentyl-2,6-dimethyl-3H-thieno[2,3-d]imidazol-5-yl)-N-(5-(1-ethylpiperidin-4-yl)pyridin-2-yl)-5-fluoro-pyrimidin-2-amine], the pIC50 (at CDK4/Cyclin D1; in assay [1]) was 6.70 to 7.70 throughout.

For the compound `Cc1c(-c2nc(Nc3ccc(C4CCN(C)CC4)cn3)ncc2F)sc2c1nc(C)n2C1CCCC1` [Example 6, 4-(3-Cyclopentyl-2,6-dimethyl-3H-thieno[2,3-d]imidazol-5-yl)-5-fluoro-N-(5-(1-methylpiperidin-4-yl)pyridin-2-yl)pyrimidin-2-amine], the pIC50 was ≥ 7.70 at CDK4/Cyclin D1 and 6.70 to 7.70 in assay [1].

Turning to `Cc1c(-c2nc(Nc3ccc(N4CCN(C)CC4)cn3)ncc2F)sc2c1nc(C)n2C1CCCC1` [Example 7, 4-(3-Cyclopentyl-2,6-dimethyl-3H-thieno[2,3-d]imidazol-5-yl)-5-fluoro-N-(5-(4-methyl-piperazin-1-yl)pyridin-2-yl)pyrimidin-2-amine], the pIC50 on CDK4/Cyclin D1 is ≥ 7.70; in assay [1] it was 6.70 to 7.70.

For `CCN1CCN(Cc2ccc(Nc3ncc(F)c(-c4sc5c(nc(C)n5C5CCC5)c4C)n3)nc2)CC1` [Example 10, 4-(3-Cyclobutyl-2,6-dimethylthieno[2,3-d]imidazol-5-yl)-N-[5-[(4-ethylpiperazin-1-yl)methyl]pyridin-2-yl]-5-fluoropyrimidin-2-amine], the pIC50 at CDK4/Cyclin D1 was ≥ 7.70; in assay [1], 5.70 to 6.70.

Regarding `Cc1c(-c2nc(Nc3ccc(N4CCC(F)(F)C4)cn3)ncc2F)sc2c1nc(C)n2C1CCCC1` [Example 11, 4-(3-Cyclopentyl-2,6-dimethyl-3H-thieno[2,3-d]imidazol-5-yl)-N-(5-(3,3-difluoropyrrolidin-1-yl)pyridin-2-yl)-5-fluoro-pyrimidin-2-amine], the pIC50 on CDK4/Cyclin D1 is 6.70 to 7.70; in assay [1] it was 5.70 to 6.70.

As to `Cc1nc2cc(-c3nc(Nc4ccc(N5CCN(C)CC5)cn4)ncc3F)sc2n1C1CCCC1` [Example 13, 4-(3-Cyclopentyl-2-methyl-3H-thieno[2,3-d]imidazol-5-yl)-5-fluoro-N-(5-(4-methylpiperazin-1-yl)pyridin-2-yl)pyrimidin-2-amine], the pIC50 was ≥ 7.70 at CDK4/Cyclin D1 and 6.70 to 7.70 in assay [1].

`CCN1CCN(c2ccc(Nc3ncc(F)c(-c4cc5nccc(C(C)C)c5s4)n3)nc2)CC1` [Example 14, N-[5-(4-Ethylpiperazin-1-yl)pyridin-2-yl]-5-fluoro-4-(7-propan-2-ylthieno[3,2-b]pyridin-2-yl)pyrimidin-2-amine]: the pIC50 at CDK4/Cyclin D1 was ≥ 7.70; in assay [1] it was 6.70 to 7.70.

Turning to `CCN1CCN(c2ccc(Nc3ncc(F)c(-c4sc5c(C6CCCC6)ccnc5c4Cl)n3)nc2)CC1` [Example 16, 4-(3-Chloro-7-cyclopentylthieno[3,2-b]pyridin-2-yl)-N-[5-(4-ethylpiperazin-1-yl)pyridin-2-yl]-5-fluoropyrimidin-2-amine], the pIC50 is ≥ 7.70 at CDK4/Cyclin D1 and 6.70 to 7.70 in assay [1].

`CCN1CC2(C1)CN(c1ccc(Nc3ncc(F)c(-c4cc5nccc(C(C)(O)C(F)(F)F)c5s4)n3)nc1)C2` (centres unmarked) [Example 18, 2-[2-[2-[[5-(6-Ethyl-2,6-diazaspiro[3.3]heptan-2-yl)pyridin-2-yl]amino]-5-fluoropyrimidin-4-yl]thieno[3,2-b]pyridin-7-yl]-1,1,1-trifluoropropan-2-ol]: the pIC50 (at CDK4/Cyclin D1; in assay [1]) was 6.70 to 7.70 in each case.

As to `CCN1CCN(Cc2ccc(Nc3ncc(F)c(-c4cc5nccc(C(C)C)c5s4)n3)nc2)CC1` [Example 19, N-[5-[(4-Ethylpiperazin-1-yl)methyl]pyridin-2-yl]-5-fluoro-4-(7-propan-2-ylthieno[3,2-b]pyridin-2-yl)pyrimidin-2-amine], the pIC50 is 6.70 to 7.70 on CDK4/Cyclin D1 and 5.70 to 6.70 in assay [1].

With `CCN1CCC(c2ccc(Nc3ncc(F)c(-c4sc5c(C6CCCC6)ccnc5c4Cl)n3)nc2)CC1` [Example 20, 4-(3-Chloro-7-cyclopentylthieno[3,2-b]pyridin-2-yl)-N-[5-(1-ethylpiperidin-4-yl)pyridin-2-yl]-5-fluoropyrimidin-2-amine], the pIC50 at CDK4/Cyclin D1 is ≥ 7.70; in assay [1], 6.70 to 7.70.

Regarding `CCN1CCN(Cc2ccc(Nc3ncc(F)c(-c4sc5c(C6CCCC6)ccnc5c4C)n3)nc2)CC1` [Example 22, 4-(7-Cyclopentyl-3-methylthieno[3,2-b]pyridin-2-yl)-N-(5-((4-ethylpiperazin-1-yl)methyl)pyridin-2-yl)-5-fluoropyrimidin-2-amine], the pIC50 at CDK4/Cyclin D1 was 6.70 to 7.70; in assay [1], 5.70 to 6.70.

On to `CCN1CCN(c2ccc(Nc3ncc(F)c(-c4cc5nccc(C6CCCC6)c5s4)n3)nc2)CC1` [Example 24, 4-(7-Cyclopentylthieno[3,2-b]pyridin-2-yl)-N-[5-(4-ethylpiperazin-1-yl)pyridin-2-yl]-5-fluoropyrimidin-2-amine], for which the pIC50 at CDK4/Cyclin D1 was 6.70 to 7.70; in assay [1] it was 5.70 to 6.70.

Consider `CCN1CCN(Cc2ccc(Nc3ncc(F)c(-c4cc5nccc(C(C)(O)C(F)(F)F)c5s4)n3)nc2)CC1` (centres unmarked) [Example 25, 2-[2-[2-[[5-[(4-Ethylpiperazin-1-yl)methyl]pyridin-2-yl]amino]-5-fluoropyrimidin-4-yl]thieno[3,2-b]pyridin-7-yl]-1,1,1-trifluoropropan-2-ol], for which the pIC50 (on CDK4/Cyclin D1; in assay [1]) was 6.70 to 7.70 throughout.

Regarding `Cc1c(-c2nc(Nc3ccc(C4CCN(C)CC4)cn3)ncc2F)sc2c(C3CCCC3)ccnc12` [Example 26, 4-(7-Cyclopentyl-3-methylthieno[3,2-b]pyridin-2-yl)-5-fluoro-N-(5-(1-methylpiperidin-4-yl)pyridin-2-yl)pyrimidin-2-amine], the pIC50 on CDK4/Cyclin D1 is ≥ 7.70; in assay [1] it was 6.70 to 7.70.

`CCN1CCN(Cc2ccc(Nc3ncc(F)c(-c4cc5nccc(C(C)(C)O)c5s4)n3)nc2)CC1` [Example 27, 2-[2-[2-[[5-[(4-Ethylpiperazin-1-yl)methyl]pyridin-2-yl]amino]-5-fluoropyrimidin-4-yl]thieno[3,2-b]pyridin-7-yl]propan-2-ol]: the pIC50 is 6.70 to 7.70 at CDK4/Cyclin D1 and 5.70 to 6.70 in assay [1].

For the compound `Cc1c(-c2nc(Nc3ccc(N4CCN(C)CC4)cn3)ncc2F)sc2c(C3CCCC3)ccnc12` [Example 28, 4-(7-Cyclopentyl-3-methylthieno[3,2-b]pyridin-2-yl)-5-fluoro-N-(5-(4-methylpiperazin-1-yl)pyridin-2-yl)pyrimidin-2-amine], the pIC50 at CDK4/Cyclin D1 was 6.70 to 7.70; in assay [1], 5.70 to 6.70.

`CCN1CCN(c2ccc(Nc3ncc(F)c(-c4cc5nccc(C(C)(O)C(F)(F)F)c5s4)n3)nc2)CC1` (centres unmarked) [Example 29, 2-[2-[2-[[5-(4-Ethylpiperazin-1-yl)pyridin-2-yl]amino]-5-fluoropyrimidin-4-yl]thieno[3,2-b]pyridin-7-yl]-1,1,1-trifluoropropan-2-ol]: the pIC50 (at CDK4/Cyclin D1; in assay [1]) was 6.70 to 7.70 in each case.

On to `CCN1CCN(c2ccc(Nc3ncc(F)c(-c4sc5c(C6CCCC6)ccnc5c4C)n3)nc2)CC1` [Example 31, 4-(7-Cyclopentyl-3-methylthieno[3,2-b]pyridin-2-yl)-N-(5-(4-ethylpiperazin-1-yl)pyridin-2-yl)-5-fluoropyrimidin-2-amine], for which the pIC50 at CDK4/Cyclin D1 was 6.70 to 7.70; in assay [1] it was 5.70 to 6.70.

For the compound `Cc1c(-c2nc(Nc3ccc(N4CC5(CNC5)C4)cn3)ncc2F)sc2c(C3CCCC3)ccnc12` [Example 32, N-(5-(2,6-Diazaspiro[3.3]heptan-2-yl)pyridin-2-yl)-4-(7-cyclopentyl-3-methylthieno[3,2-b]pyridin-2-yl)-5-fluoropyrimidin-2-amine], the pIC50 was ≥ 7.70 at CDK4/Cyclin D1 and 5.70 to 6.70 in assay [1].

As to `CCN1CCN(Cc2ccc(Nc3ncc(F)c(-c4cc5nccc(C6CCCC6)c5s4)n3)nc2)CC1` [Example 33, 4-(7-Cyclopentylthieno[3,2-b]pyridin-2-yl)-N-[5-[(4-ethylpiperazin-1-yl)methyl]pyridin-2-yl]-5-fluoropyrimidin-2-amine], the pIC50 at CDK4/Cyclin D1 is ≥ 7.70; in assay [1], 5.70 to 6.70.
